# From patent US10799593B2, “Nanodiamond particle complexes” (priority 2008, dated 2020)
# Legend:
# RAW 264.7 macrophages = test: Electrophoretic DNA fragmentation assay on Parylene A substrates; type: cell-based, murine
# From the text: Substrate Preparation. Plain glass slides were sterilized in 70% ethanol and pre-treated with A-174 Silane (SCS COATINGS, Indianapolis, Ind.) adhesion promoter according to manufacturer's protocol. Approximately 20 grams of Parylene A (UNIGLOBE KISCO, White Plains, N.Y.) was loaded into a Parylene deposition system (PDS) 2010 LABCOTER® 2 (SCS COATINGS.) The deposition took place under previously indicated conditions (Kramer et al. 1984, 22, 475, Yang et al. Journal of Crystal Growth 1998, 183, 385, herein incorporated by reference in their entireties). Application of drug to the base layer of Parylene A was accomplished via desiccation of 100 μg dexmnethasone (SIGMA ALDRICH, St Louis, Mo.), or 25 μg doxorubicin (U.S. PHARMACOPIA, Rockville, Md.) under a laminar flow hood. A second layer of 150 mg of Parylene A was deposited over the drug films to produce the eluting layer.
# Cell Culture Conditions. Macrophage cell line RAW 264.7 (AICC Manassas, Va.) cells were grown in DMEM media ([…] Inc, Hemdon, Va.) supplemented with 10% FBS (AICC) and 1% Penicillin/Streptomycin (LONZA, Walkersville, Md.). Investigation of inflammation pathways utilized lipo-polysacchmide 5 ng/ml (SIGMA ALDRICH) and resultant expression of IL-6 and TNF-α genes. Analysis of cellular apoptosis was accomplished using agarose electrophoresis of DNA fragmentation.
# Electrophoretic Assay. […]
# [1] = Spectroscopic analysis of DOX elution from Parylene A bi-layer; type: physicochemical; details: PBS
# Protocol: Spectroscopy Analysis. […] Samples were placed in a 12 well plate immersed in 1.0 ml of PBS for 10 min, 20 min, 40 min, 1 hour, 4 hour, and 24 hour increments. After each time point the solution was removed and the drug eluting glass disks were transferred to a vacant well and replenished with […] of PBS. Remaining solutions were analyzed in a DU Series 700 UV-Vis Scanning Spectrophotometer (BECKMAN COULTER, Fullerton, Calif.).
# [2] = test system: RAW 264.7 murine macrophages; test: DNA fragmentation assay on DOX-ND Parylene C devices; type: cell-based; details: 16 and 20 hours, DOX positive control 2.5 μg/mL
# Protocol: Materials and Device Fabrication. A conformal 3 g base layer of Parylene C was deposited on pre-cut 2.5 cm×2.5 cm glass slides with a […] COATING SYSTEMS (SCS) PDS 2010 LABCOATER (SCS, Indianapolis, Ind.). The Parylene layer was oxidized via oxygen plasma treatment in a HARRICK Plasma Cleaner/Sterilizer (Ithaca, N.Y.) at 100 W for one minute. A DOX-ND solution was then added to the base layer so that the final DOX-ND concentration in solution was 6.6 μg/ml. Subsequently, solvent evaporation occurred in isolation at room temperature. Following DOX-ND deposition, an ultra-thin 0.15 g palylene C layer was deposited as an elution-limiting and control element. The final layer of Parylene C was treated with oxygen plasma at 100 W for one minute. Parylene C was pyrolized into a gaseous monomer at 690° C., and deposited at room temperature under vacuum conditions for all depositions. The preceding parameters apply to devices fabricated for spectroscopy studies. The present invention is not limited to these parameters. The concentration of DOX-ND was adjusted for devices used in the DNA fragmentation assay so that the final DOX-ND concentration in solution was 33 μg/ml.
# DNA Fragmentation Assay. […]
# [3] = PBS compared with water; Pierstorff et al. 2008; cited from earlier work
structure (smiles),measurement,setting,value
"COc1cccc2c1C(=O)c1c(O)c3c(c(O)c1C2=O)C[C@@](O)(C(=O)CO)C[C@@H]3O[C@H]1C[C@H](N)[C@H](O)[C@H](C)O1 [DOX, doxorubicin]","DNA fragmentation (apoptosis), electrophoretic gel",RAW 264.7 macrophages,fragmentation of DNA indicative of cells actively undergoing apoptosis
same,"release of DOX, additive spectroscopic scans",[1]; control: DOX applied to a base layer of Parylene A,complete release of DOX
same,"release of DOX, additive spectroscopic scans",[1]; pinhole sample: DOX between Parylene A layers,gradual release of DOX
same,DNA fragmentation / onset of apoptosis,[2],rigorous DNA fragmentation
same,solubility,[3],less soluble in PBS
